Where two headings read alike, the source gives them in different places.
System: H460 non-cell lung cancer human tumor cell line
Test: In vitro human tumor cell line cytotoxicity (proliferation) assay, AlamarBlue
Format: cell-based
Protocol: IC50 values are reported in micromolar and result from exposure of compound at various concentrations for 2 hrs followed by a wash step and addition of fresh media followed by growth and cell viability staining and comparison to a media only treated control.
Specifically, exponentially growing cells are seeded at a density of 4×10^3 cells per well in a 96 well plate and incubated at 37° C. in 5% CO2, 95% air and 100% relative humidity for 24 hours prior to addition of test compounds. Compounds are solubilized in 100% DMSO at 200 times the desired final test concentration. At the time of drug addition, compounds are further diluted to 4 times the desired final concentration with complete medium. Aliquots of 50 μl of compound at specified concentrations are added to microtiter wells already containing 150 μl of medium, resulting in the final drug concentration reported. After drug addition, the plates are incubated for an additional 2 hours at 37° C., 5% CO2, 95% air, and 100% relative humidity, then the drug is washed off and fresh medium is added and the plates are incubated for addition 70 hrs at 37° C., 5% CO2, 95% air and 100% relative humidity. At the end of this incubation, the viable cells are quantified using the AlamarBlue assay. The drug concentration resulting in growth inhibition of 50% (IC50) is calculated using Prism software (Irvine, Calif.), and the results are listed in the table.

[1] = Homo sapiens, NCI-H460, H460 cells, under air, 2 hrs exposure, wash, then 70 hrs growth, read-out: IC50 (air)
[2] = Homo sapiens, NCI-H460, H460 cells, under nitrogen, 2 hrs exposure, wash, then 70 hrs growth, read-out: IC50 (N2)
[3] = Homo sapiens, NCI-H460, read-out: IC50 (N2), H460 cells, under nitrogen, 2 hrs exposure, wash, then 70 hrs growth
[4] = Homo sapiens, NCI-H460, read-out: IC50 (air), H460 cells, under air, 2 hrs exposure, wash, then 70 hrs growth

CC(=O)OCC(OP(=O)(N1CC1)N1CC1)c1ccc([N+](=O)[O-])cc1 (stereo not shown) [compound 2686]
IC50 [1]: 79000 nM
IC50 [2]: 3100 nM

CCN(CC)c1cc(C(C)OP(=O)(N2CC2)N2CC2)c(F)cc1[N+](=O)[O-] (stereo not shown) [compound 2730]
IC50 [1]: 22000 nM
IC50 [2]: 700 nM

CC(C)C(OP(=O)(N1CC1)N1CC1)c1ncc([N+](=O)[O-])n1CCO (stereo not shown) [compound 2658]
IC50 [1]: 86000 nM
IC50 [2]: 300 nM

CC(OP(=O)(N1CC1)N1CC1)c1ccc([N+](=O)[O-])c(C(F)(F)F)c1 (stereo not shown) [compound 2613]
IC50 [1]: 26000 nM
IC50 [2]: 300 nM

CC(OP(=O)(N1CC1)N1CC1)c1ccc([N+](=O)[O-])c(C(F)F)c1 (stereo not shown) [compound 2821]
IC50 [1]: 5000 nM
IC50 [2]: 50 nM

CCC(OP(=O)(N1CC1)N1CC1)c1ncc([N+](=O)[O-])n1C (stereo not shown) [compound 2662]
IC50 [1]: 22000 nM
IC50 [2]: 30 nM

CC(OP(=O)(N1CC1)N1CC1)c1ccc([N+](=O)[O-])c(N2CCNC2(C)O)c1 (stereo not shown) [compound 2723]
IC50 [1]: 420000 nM
IC50 [2]: 29000 nM

CCCC(OP(=O)(N1CC1)N1CC1)c1c(C)cccc1[N+](=O)[O-] (stereo not shown) [compound 2610]
IC50 [1]: 350000 nM
IC50 [2]: 51000 nM

CCc1nc([N+](=O)[O-])n(C)c1COP(=O)(N1CC1)N1CC1 [compound 2119]
IC50 [1]: 900 nM
IC50 [2]: 30 nM

Cc1cc(COP(=O)(N2CC2)N2CC2)ccc1[N+](=O)[O-] [compound 2580]
IC50 [1]: 20000 nM
IC50 [2]: 3700 nM

CC(OP(=O)(N1CC1)N1CC1)c1ccc([N+](=O)[O-])c(N2CCC(c3ccccc3)CC2)c1 (stereo not shown) [compound 2750]
IC50 [1]: 23000 nM
IC50 [2]: 2400 nM

C=Cc1nc([N+](=O)[O-])n(C)c1COP(=O)(NCCBr)N1CC1 (stereo not shown) [compound 2130]
IC50 [3]: 5 nM
IC50 [4]: 1300 nM

COc1cc([N+](=O)[O-])ccc1COP(=O)(N1CC1)N1CC1 [compound 2554]
IC50 [1]: 3000 nM
IC50 [2]: 100 nM

C=CCC(OP(=O)(N1CC1)N1CC1)c1ccc([N+](=O)[O-])cc1 (stereo not shown) [compound 2689]
IC50 [1]: 43000 nM
IC50 [2]: 600 nM

CC(OP(=O)(N1CC1)N1CC1)c1ccc([N+](=O)[O-])c(N2CCOCC2)c1 (stereo not shown) [compound 2695]
IC50 [1]: 130000 nM
IC50 [2]: 4200 nM

CC(OP(=O)(N1CC1)N1CC1)c1cc(-n2cncc2[N+](=O)[O-])c([N+](=O)[O-])cc1F (stereo not shown) [compound 2743]
IC50 [3]: 200 nM
IC50 [4]: 3700 nM

CC(OP(=O)(N1CC1)N1CC1)c1cc(-n2nnc3ccccc32)c([N+](=O)[O-])cc1F (stereo not shown) [compound 2787]
IC50 [1]: 2300 nM
IC50 [2]: 20 nM

Cn1c([N+](=O)[O-])nc(-c2sc(Br)c(Br)c2Br)c1COP(=O)(N1CC1)N1CC1 [compound 2523]
IC50 [1]: 400 nM
IC50 [2]: 20 nM

CC(C)C(OP(=O)(N1CC1)N1CC1)c1nc(Br)c([N+](=O)[O-])n1C (stereo not shown) [compound 2624]
IC50 [1]: 160000 nM
IC50 [2]: 500 nM

CC(OP(=O)(N1CC1)N1CC1)c1ccc([N+](=O)[O-])c(-n2cncn2)c1 (stereo not shown) [compound 2727]
IC50 [1]: 31000 nM
IC50 [2]: 200 nM

CC(OP(=O)(N1CC1)N1CC1)c1ccc([N+](=O)[O-])c(-n2ccc3ncccc32)c1 (stereo not shown) [compound 2763]
IC50 [1]: 5000 nM
IC50 [2]: 100 nM

CC(C)C(OP(=O)(N1CC1)N1CC1)c1ncc([N+](=O)[O-])n1C1CCCC1 (stereo not shown) [compound 2619]
IC50 [1]: 99000 nM
IC50 [2]: 2300 nM

Cn1c([N+](=O)[O-])nc(-c2cc(Cl)c(Cl)s2)c1COP(=O)(N1CC1)N1CC1 [compound 2525]
IC50 [1]: 700 nM
IC50 [2]: 20 nM

CC(C)C(OP(=O)(N1CC1)N1CC1)c1ncc([N+](=O)[O-])n1CCN1CCOCC1 (stereo not shown) [compound 2544]
IC50 [1]: 45000 nM
IC50 [2]: 200 nM

O=[N+]([O-])c1ccc(COP(=O)(N2CC2)N2CC2)cc1Cl [compound 2579]
IC50 [1]: 2600 nM
IC50 [2]: 1300 nM

COc1cc(C(C)OP(=O)(N2CC2)N2CC2)ccc1[N+](=O)[O-] (stereo not shown) [compound 2620]
IC50 [1]: 7400 nM
IC50 [2]: 2500 nM

CC(C)C(OP(=O)(N1CC1)N1CC1)c1ncc([N+](=O)[O-])n1CCN1CCCCC1 (stereo not shown) [compound 2603]
IC50 [1]: 29000 nM
IC50 [2]: 300 nM

CC(OP(=O)(N1CC1)N1CC1)c1ccc([N+](=O)[O-])c(-n2cnc(-c3ccccc3)c2)c1 (stereo not shown) [compound 2749]
IC50 [1]: 3000 nM
IC50 [2]: 100 nM

C=CCC(OP(=O)(N1CC1)N1CC1)c1ccc([N+](=O)[O-])cc1OC (stereo not shown) [compound 2569]
IC50 [1]: 2000 nM
IC50 [2]: 50 nM

CC(OP(=O)(N1CC1)N1CC1)c1ccc([N+](=O)[O-])c(-n2ccnn2)c1 (stereo not shown) [compound 2772]
IC50 [1]: 26000 nM
IC50 [2]: 50 nM

Cc1cc([N+](=O)[O-])ccc1C(C)OP(=O)(N1CC1)N1CC1 (stereo not shown) [compound 2611]
IC50 [1]: 14000 nM
IC50 [2]: 200 nM

CCCCC(CCCC)C(OP(=O)(N1CC1)N1CC1)c1ncc([N+](=O)[O-])n1C (stereo not shown) [compound 2645]
IC50 [1]: 30000 nM
IC50 [2]: 1600 nM

CC(OP(=O)(N1CC1)N1CC1)c1ccc([N+](=O)[O-])c(C[N+](=O)[O-])c1 (stereo not shown) [compound 2811]
IC50 [3]: 100 nM
IC50 [4]: 8400 nM

Cn1c([N+](=O)[O-])nc(C(F)F)c1COP(=O)(N1CC1)N1CC1 [compound 2137]
IC50 [1]: 2200 nM
IC50 [2]: 20 nM

O=[N+]([O-])c1ccc(C(CC(F)(F)F)OP(=O)(N2CC2)N2CC2)cc1 (stereo not shown) [compound 2690]
IC50 [1]: 99000 nM
IC50 [2]: 3200 nM

CC(C)C(OP(=O)(N1CC1)N1CC1)c1ncc([N+](=O)[O-])n1C (stereo not shown) [compound 2518]
IC50 [1]: 420000 nM
IC50 [2]: 600 nM

CC(OP(=O)(N1CC1)N1CC1)c1ncc([N+](=O)[O-])n1C (stereo not shown) [compound 2501]
IC50 [1]: 21000 nM
IC50 [2]: 50 nM

C=CCCn1c([N+](=O)[O-])cnc1C(OP(=O)(N1CC1)N1CC1)C(C)C (stereo not shown) [compound 2574]
IC50 [1]: 29000 nM
IC50 [2]: 100 nM

CC(OP(=O)(N1CC1)N1CC1)c1cc(N2CCN(C)CC2)c([N+](=O)[O-])cc1F (stereo not shown) [compound 2732]
IC50 [1]: 23000 nM
IC50 [2]: 200 nM

CC(C)n1c([N+](=O)[O-])cnc1COP(=O)(N1CC1)N1CC1 [compound 2627]
IC50 [1]: 32000 nM
IC50 [2]: 500 nM

Cc1nccn1-c1cc(C(C)OP(=O)(N2CC2)N2CC2)ccc1[N+](=O)[O-] (stereo not shown) [compound 2738]
IC50 [1]: 20000 nM
IC50 [2]: 200 nM

O=[N+]([O-])c1cc(Cl)ccc1COP(=O)(N1CC1)N1CC1 [compound 2592]
IC50 [1]: 3300 nM
IC50 [2]: 700 nM

O=[N+]([O-])c1cc(Cl)c(COP(=O)(N2CC2)N2CC2)c(Cl)c1 [compound 2602]
IC50 [1]: 250 nM
IC50 [2]: 20 nM

Cc1cc([N+](=O)[O-])ccc1COP(=O)(N1CC1)N1CC1 [compound 2556]
IC50 [1]: 17000 nM
IC50 [2]: 700 nM

COCCN(CCOC)c1cc(C(C)OP(=O)(N2CC2)N2CC2)ccc1[N+](=O)[O-] (stereo not shown) [compound 2753]
IC50 [1]: 19000 nM
IC50 [2]: 3200 nM

CC(OP(=O)(N1CC1)N1CC1)c1ncc([N+](=O)[O-])n1C (stereo not shown) [compound 2552]
IC50 (H460 cells, under air, 2 hrs exposure, wash, then 70 hrs growth, read-out: IC50 (air)): 23000 nM
IC50 (H460 cells, under nitrogen, 2 hrs exposure, wash, then 70 hrs growth, read-out: IC50 (N2)): 100 nM

CC(OP(=O)(N1CC1)N1CC1)c1ccc([N+](=O)[O-])c(N(C)CCN(C)C)c1 (stereo not shown) [compound 2736]
IC50 [1]: 150000 nM
IC50 [2]: 2800 nM

O=[N+]([O-])c1ncn(-c2ccc(C(F)(F)F)cc2)c1COP(=O)(N1CC1)N1CC1 [compound 2656]
IC50 [1]: 2400 nM
IC50 [2]: 100 nM

Cc1cccc([N+](=O)[O-])c1COP(=O)(N1CC1)N1CC1 [compound 2588]
IC50 [1]: 10000 nM
IC50 [2]: 1300 nM

C#Cc1cc(C(C)OP(=O)(N2CC2)N2CC2)ccc1[N+](=O)[O-] (stereo not shown) [compound 2792]
IC50 [1]: 3700 nM
IC50 [2]: 200 nM

Cn1c([N+](=O)[O-])cnc1C(OP(=O)(N1CC1)N1CC1)C1CC1 (stereo not shown) [compound 2520]
IC50 [1]: 20000 nM
IC50 [2]: 8800 nM

CC(OP(=O)(N1CC1)N1CC1)c1ccc([N+](=O)[O-])c(N2CCN(C)CC2)c1 (stereo not shown) [compound 2702]
IC50 [1]: 47000 nM
IC50 [2]: 800 nM

COc1cc([N+](=O)[O-])ccc1C(C)OP(=O)(N1CC1)N1CC1 (stereo not shown) [compound 2600]
IC50 [1]: 2800 nM
IC50 [2]: 50 nM

CC(OP(=O)(N1CC1)N1CC1)c1ccc([N+](=O)[O-])c(-n2c(N)nc3ccccc32)c1 (stereo not shown) [compound 2798]
IC50 [1]: 32000 nM
IC50 [2]: 600 nM

CC(OP(=O)(N1CC1)N1CC1)c1ccc([N+](=O)[O-])c(-n2ccnc2Br)c1 (stereo not shown) [compound 2807]
IC50 [1]: 13000 nM
IC50 [2]: 30 nM

O=[N+]([O-])c1ccc(COP(=O)(N2CC2)N2CC2)cc1 [compound 2550]
IC50 [1]: 29000 nM
IC50 [2]: 1800 nM

CC(OP(=O)(N1CC1)N1CC1)c1ccc([N+](=O)[O-])c(-c2ccc(C#N)cc2)c1 (stereo not shown) [compound 2775]
IC50 [1]: 2500 nM
IC50 [2]: 300 nM

CC(OP(=O)(N1CC1)N1CC1)c1ccc([N+](=O)[O-])c(-n2cnc(C(C)(C)C)c2)c1 (stereo not shown) [compound 2759]
IC50 [1]: 100000 nM
IC50 [2]: 400 nM

CC(OP(=O)(N1CC1)N1CC1)c1ccc([N+](=O)[O-])c(N(C)CCN2CCOCC2)c1 (stereo not shown) [compound 2757]
IC50 [3]: 3800 nM
IC50 [4]: 380000 nM

Source: US10668047B2, “Aziridine containing DNA alkylating agents” (priority 2015, dated 2020)
